Experimental data from patent US12570675B2, “Boronic acid compounds” (LG CHEM, LTD., priority 2020, dated 2026).

Tests used:
[1] = target: Proteasome chymotrypsin-like activity (S26 protein from RPMI8226 cells) (Homo sapiens, UniProt P28074); assay type: biochemical; settings: S26 protein from RPMI8226 cell extract 2 ug/well, substrate 20 uM, 37° C., 90 minutes; read-out: Proteasome chymotrypsin-like activity inhibition IC50
Outline: (§1)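 Fluorogenic AMC substrates (20 uM final) report chymotrypsin-like (Suc-Leu-Leu-Val-Tyr-AMC) or caspase-like (Z-Leu-Leu-Glu-AMC) cleavage by RPMI8226-derived S26 protein, 2 ug/well, pH 8.0 Tris lysate.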

[2] = target: Proteasome caspase-like activity (S26 protein from RPMI8226 cells) (Homo sapiens (Human), UniProt P28072); assay: Proteasome caspase-like activity inhibition (Z-Leu-Leu-Glu-AMC fluorogenic substrate, RPMI8226 cell extract); assay type: biochemical; settings: S26 protein from RPMI8226 cell extract 2 ug/well, substrate 20 uM, 37° C., 90 minutes
Proteasome caspase-like activity (S26 protein from RPMI8226 cells), sequence (P28072 whole entry): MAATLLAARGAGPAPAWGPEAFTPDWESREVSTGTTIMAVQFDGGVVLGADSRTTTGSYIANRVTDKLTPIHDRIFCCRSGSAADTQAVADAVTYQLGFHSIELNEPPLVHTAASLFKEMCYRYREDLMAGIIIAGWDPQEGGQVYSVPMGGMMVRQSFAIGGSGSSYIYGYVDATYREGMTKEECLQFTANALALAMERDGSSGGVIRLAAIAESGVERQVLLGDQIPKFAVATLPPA
Outline: as §1

Proteasome chymotrypsin-like activity (S26 protein from RPMI8226 cells), sequence (P28074 60-263 limits assumed): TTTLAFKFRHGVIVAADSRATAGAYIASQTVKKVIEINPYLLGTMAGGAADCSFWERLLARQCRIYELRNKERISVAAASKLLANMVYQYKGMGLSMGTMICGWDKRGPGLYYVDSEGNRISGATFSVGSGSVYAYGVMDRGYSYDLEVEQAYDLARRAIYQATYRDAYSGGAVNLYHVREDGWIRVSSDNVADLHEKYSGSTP

Compound | IC50 [1] [nM] | IC50 [2] [nM]
CC(C)C[C@H](NC(=O)C1CC(COCc2ccccc2)=NO1)B(O)O (stereo partly drawn) [Example 252] | < 100 | > 500
CC(C)C[C@H](NC(=O)C1(Cc2ccccc2)CC(COCc2ccccc2)=NO1)B(O)O (stereo partly drawn) [Example 256] | < 10 | > 1000
O=C(N[C@@H](Cc1ccccc1)B(O)O)C1(Cc2ccccc2)CC(COCc2ccccc2)=NO1 (stereo partly drawn) [Example 257, ((1R)-1-(5-benzyl-3-((benzyloxy)methyl)-4,5-dihydroisoxazol-5-carboxamido)-2-phenylethyl)boronic acid] | < 10 | > 2500
CC(C)C[C@H](NC(=O)C1(Cc2ccccc2)CC(CNC(=O)c2ccccc2)=NO1)B(O)O (stereo partly drawn) [Example 291] | < 10 | > 250
CC(C)C[C@H](NC(=O)C1(Cc2ccccc2)CC(CNC(=O)c2cccc(Cl)n2)=NO1)B(O)O (stereo partly drawn) [Example 308] | < 10 | > 500

The remaining lines, values ahead:

IC50 [1] [nM] | IC50 [2] [nM] | Compound
< 10 | > 1000 | Cc1cc(C(=O)NCC2=NOC(Cc3ccccc3)(C(=O)N[C@@H](CC(C)C)B(O)O)C2)n(-c2ccccc2)n1 (stereo partly drawn) [Example 246, ((1R)-1-(5-benzyl-3-((3-methyl-1-phenyl-1H-pyrazol-5-carboxamido)methyl)-4,5-dihydroisoxazol-5-carboxamido)-3-methylbutyl)boronic acid]
< 10 | > 1000 | Cc1cc(C(=O)NCC2=NOC(Cc3ccccc3)(C(=O)N[C@@H](CC(C)C)B(O)O)C2)n(-c2ccc(F)cc2)n1 (stereo partly drawn) [Example 247, ((1R)-1-(5-benzyl-3-((1-(4-fluorophenyl)-3-methyl-1H-pyrazol-5-carboxamido)methyl)-4,5-dihydroisoxazol-5-carboxamido)-3-methylbutyl)boronic acid]
< 10 | > 1000 | O=C(NCC1=NOC(Cc2ccccc2)(C(=O)N[C@@H](Cc2ccccc2)B(O)O)C1)c1ccccc1 (stereo partly drawn) [Example 292, ((1R)-1-(3-(benzamidomethyl)-5-benzyl-4,5-dihydroisoxazol-5-carboxamido)-2-phenylethyl)boronic acid]
< 10 | > 1000 | CC(C)[C@H](NC(=O)C1(Cc2ccccc2)CC(CNC(=O)c2ccccc2)=NO1)B(O)O (stereo partly drawn) [Example 294, ((1R)-1-(3-(benzamidomethyl)-5-benzyl-4,5-dihydroisoxazol-5-carboxamido)-2-methylpropyl)boronic acid]
